Assay results published in patent US20260174875A1 (Novo Nordisk A/S, priority 2023, published 2026).
Like-named read-outs stand apart in the source and are kept apart here. Numbered stars: 1 amine (or outer) side, 2 acyl side, 3 side chain; on linkers, the order of the positions; unused ones are H or OH. Square brackets hold non-standard residues; d marks the D form. Side chains are listed from the residue outwards. * marks the point of attachment. C20 diacid = O=C(O)CCCCCCCCCCCCCCCCCCC(=O)*; C18 diacid = O=C(O)CCCCCCCCCCCCCCCCC(=O)*; C16 diacid = O=C(O)CCCCCCCCCCCCCCC(=O)*; γGlu = O=C(O)[C@H](CCC(=O)[*:2])N[*:1]; AEEA = NCCOCCOCC(=O)O; Aib = CC(C)(N)C(=O)O

Tests used:
[1] = target: T1, human GIP receptor (hGIPR) (Homo sapiens, UniProt P48546); assay: GIP receptor assay, method A (CRE-luciferase reporter, BHK cells); type: cell-based
T1 construct: expressed in transfected cells
T1 sequence (P48546 22-466): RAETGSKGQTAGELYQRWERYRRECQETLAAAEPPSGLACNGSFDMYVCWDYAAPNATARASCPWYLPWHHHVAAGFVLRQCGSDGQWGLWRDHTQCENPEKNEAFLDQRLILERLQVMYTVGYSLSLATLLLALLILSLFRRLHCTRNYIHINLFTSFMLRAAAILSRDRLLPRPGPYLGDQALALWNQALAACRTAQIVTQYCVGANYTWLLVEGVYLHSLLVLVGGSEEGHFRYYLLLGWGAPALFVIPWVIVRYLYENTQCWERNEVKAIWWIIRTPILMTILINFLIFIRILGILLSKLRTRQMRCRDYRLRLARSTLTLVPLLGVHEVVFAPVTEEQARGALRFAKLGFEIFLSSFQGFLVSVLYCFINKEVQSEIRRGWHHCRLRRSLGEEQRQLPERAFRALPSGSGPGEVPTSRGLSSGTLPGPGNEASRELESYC
Outline: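 BHK cells co-expressing hGIPR and a CRE-luciferase reporter, plated 21-23 h before assay, stimulated 3 h at 37 °C with compounds (7-point 10-fold titration, duplicates) in ovalbumin-containing DMEM buffer with or without 1% HSA final. Luminescence read; EC50 (pM) from four-parameter logistic fit with shared Hill slope.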

[2] = target: T2, human amylin receptor (hAMYR3) (Homo sapiens, UniProt O60896+P30988); assay: Amylin receptor assay, method A (CRE-luciferase reporter, BHK cells); type: cell-based
T2 construct: host or cells: BHK cells (Hollex-1 line expressing hCTR(a) and CRE-Luc), further transfected with human RAMP3

[3] = hGIPR Potency, 1% HSA, EC50, method A, in the presence of 1% HSA
[4] = method A, absence of HSA, read-out: hGIPR Potency, no HSA, EC50
[5] = hAMYR3 Potency, 1% HSA, EC50, method A, in the presence of 1% HSA
[6] = method A, absence of HSA, read-out: hAMYR3 Potency, no HSA, EC50

T2 sequence (P30988 25-474): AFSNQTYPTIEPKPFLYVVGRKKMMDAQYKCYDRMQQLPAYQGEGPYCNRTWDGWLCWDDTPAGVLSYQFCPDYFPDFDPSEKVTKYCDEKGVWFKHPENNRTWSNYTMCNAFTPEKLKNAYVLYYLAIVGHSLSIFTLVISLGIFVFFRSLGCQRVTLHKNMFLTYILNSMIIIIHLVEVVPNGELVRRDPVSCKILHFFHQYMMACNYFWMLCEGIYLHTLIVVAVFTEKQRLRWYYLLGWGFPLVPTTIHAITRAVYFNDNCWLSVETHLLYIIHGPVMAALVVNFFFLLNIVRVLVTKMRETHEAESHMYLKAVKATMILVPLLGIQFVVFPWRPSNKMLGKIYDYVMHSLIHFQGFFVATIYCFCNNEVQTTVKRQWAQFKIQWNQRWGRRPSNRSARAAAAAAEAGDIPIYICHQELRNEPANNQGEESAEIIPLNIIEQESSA
T2 sequence (O60896 24-148): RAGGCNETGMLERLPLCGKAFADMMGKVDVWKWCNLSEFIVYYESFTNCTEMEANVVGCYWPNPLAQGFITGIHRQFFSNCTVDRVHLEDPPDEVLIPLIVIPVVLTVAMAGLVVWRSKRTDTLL

Row | Substance | EC50 [1, 3] [pM] | EC50 [1, 4] [pM] | EC50 [2, 5] [pM] | EC50 [2, 6] [pM]
1 | Y[Aib]EGTFTSDYSILLEEQAAREFIEWLLAGGPSSGALQAPGQAPLASHLSTAQTQRLSAELHK([AEEA-AEEA-γGlu-C20 diacid])LATLPRTETGSGSP-NH2 [Compound 99] | 7.41 | 2.09 | 129 | 2.82
2 | Y[Aib]EGTFTSDYSILLEEQAAREFIEWLLAGGPSSGAGQAPGQAPGASHLSTAQTQRLSAK([AEEA-AEEA-γGlu-C18 diacid])LHRLATLPRTETGSGSP-NH2 [compound 55] | 10.3 | 3 | 34 | 2.22
3 | Y[Aib]EGTFTSDYSILLEEQAAREFIEWLLAGGPSK([AEEA-AEEA-γGlu-C16 diacid])GEASELSTAALGRLSAELHELATLPRTETGSGSP-NH2 [Compound 11] | 58.3 | 1.69 | 211 | 12.8
4 | Y[Aib]EGTFTSDYSILLEEQAAREFIEWLLAGGPSRGEASHLSTAQTQRLSAELHK([AEEA-AEEA-γGlu-C18 diacid])LATLPRTETGSGSP-NH2 [compound 68] | 11.9 | 1.83 | 230 | 2.57
5 | Y[Aib]EGTFTSDYSILLEEQAAREFIEWLLAGGPSSGAGQAPGASHLSTAQTQRLSAELHK([AEEA-AEEA-γGlu-C18 diacid])LATLPRTETGSGSP-NH2 [Compound 97] | 8.38 | 2.3 | 132 | 2.81
6 | Y[Aib]EGTFTSDYSILLEEQAAREFIEWLLAGGPSK([AEEA-AEEA-γGlu-C18 diacid])GGQAPGQAPGEASHLSTAQTQRLSAELHELATLPRTETGSGSP-NH2 [Compound 38] | 336 | 1.37 | 172 | 3.63
7 | H[Aib]HGTFTSDYSILLEEQAAREFIEWLLAGGPSK([AEEA-AEEA-γGlu-C18 diacid])GAPPPSGGGEASHLSTAQTARLSAELHQLATLPRTETGSGSP-NH2 [compound 101] | 129 | 1.87 | 95.5 | 3.08
8 | Y[Aib]EGTFTSDYSILLEEQAAREFIEWLLAGGPSSGAPPPSGGGEASHLSTAQTQRLSAK([AEEA-AEEA-γGlu-C18 diacid])LHRLATLPRTETGSGSP-NH2 [Compound 109] | 17.4 | 7.42 | 32 | 3.65

Next, values leading:

Row | EC50 [1, 3] [pM] | EC50 [1, 4] [pM] | EC50 [2, 5] [pM] | EC50 [2, 6] [pM] | Substance
9 | 19.1 | 3.7 | 38 | 3.26 | H[Aib]HGTFTSDYSILLEEQAAREFIEWLLAGGPSSGEASHLSTAQTQRLSAK([AEEA-AEEA-γGlu-C18 diacid])LHRLATLPRTETGSGSP-NH2 [Compound 82]
10 | 485 | 4.27 | 166 | 5.7 | H[Aib]HGTFTSDYSILLEEQAAREFIEWLLAGGPSK([AEEA-AEEA-γGlu-C20 diacid])GAPPPSGGGEASELSTAALGRLSAELHELATLPRTETGSGSP-NH2 [Compound 16]
11 | 8.05 | 1.9 | 78.9 | 3.43 | H[Aib]HGTFTSDYSILLEEQAAREFIEWLLAGGPSRGEASHLSTAQTQRLSAELHK([AEEA-AEEA-γGlu-C18 diacid])LATLPRTETGSGSP-NH2 [Compound 69]
12 | 254 | 5.84 | 33.4 | 2.21 | H[Aib]HGTFTSDYSILLEEQAAREFIEWLLAGGPSK([AEEA-AEEA-γGlu-C18 diacid])GAPPPSGGGGASELSTAALGRLSAELHRLATLPRTETGSGSP-NH2 [Compound 14]
13 | 30.6 | 6.47 | 39.7 | 3.12 | H[Aib]HGTFTSDYSILLEEQAAREFIEWLLAGGPSSGEASHLSTAALGRLSAELHRLK([AEEA-AEEA-γGlu-C18 diacid])TLPRTETGSGSP-NH2 [Compound 89]
14 | 38.6 | 7.26 | 36.5 | 4.99 | H[Aib]HGTFTSDYSILLEEQAAREFIEWLLAGGPSSGEASHLSTAALGRLSAK([AEEA-AEEA-γGlu-C18 diacid])LHRLATLPRTETGSGSP-NH2 [Compound 87]
